The values below come from US20240376085A1 (Janssen Pharmaceutica NV, priority 2021, published 2024).

For assay [1], the target named is T1, IL-17A : IL-17RA binding (Homo sapiens, UniProt Q16552, K93Q).
T1 construct: Name: IL-17A-Flag
Description: IL-17A(FLAG-tagged):IL-17RA(His-tagged) binding disruption Eu-HTRF assay, Protocol 2. The conditions noted are these: FLAG-IL-17A 1 nM at 2x final concentration; average if tested more than once. The text has this:
An antibody directed against the FLAG tag of IL-17A (SEQ ID NO: 1) is labeled with the HTRF donor chromophore (Europium-cryptate). IL-17A is present as a dimer that is “locked into” this quaternary structure due to the formation of loop-spanning […] disulfide bridges. The construct of IL-17RA used in the assay excludes the […] portion of the receptor and is fused to a C-terminal 10×His tag (SEQ ID NO:2). An antibody directed against the His tag of the IL-17RA chimera is labeled with the HTRF acceptor chromophore (“D2”). The fluorescence-resonance energy transfer (FRET) depends on the vicinity of the donor chromophore to the acceptor, and interruption of the binding between the IL-17A and IL-17RA causes the reduction/loss of FRET. Therefore, this assay allows to evaluate the compound effect on the binding IL-17A and IL-17RA by monitoring the fluorescence intensity of donor vs acceptor. The assay was run using either Protocol 1 or Protocol 2 as described below.
Protocol 2. 40 nl of 2-fold serial diluted compound solution for total 22 dilution points is added into each well of a 1536-well, white, low-volume, non-binding plate (Greiner #782904), then 2 μl of FLAG tagged IL-17A at 2× final concentration (1 nM) in solution of PBS+0.01% Triton-X100 is added to each well. The assay plate is briefly centrifuged then incubated for 1 h at rt. A mixed solution is prepared containing 2×5 nM 10HIS×IL-17RA, 2×2.5 nM Eu-anti-FLAG (CISBIO), 2×5 nM D2-anti-HIS (CISBIO) in PBS+0.01% Triton-X100+200 mM Potassium Fluoride (Sigma 60238) and 2 μl of mix is added to each well of the assay plate. The plate is briefly centrifuged then incubated for 2 h at rt. The HTRF intensities at the wavelength of donor (615 nm) and acceptor (665 nm) are measured using BMG Pherastar. The ratio between intensities at two wavelengths is calculated and plotted against the compound concentration and the data is fitted to a one-site competition model to yield IC50 of the compound.
For orientation: In TR-FRET formats the signal depends on donor and acceptor labels being close together.

Assay [2] has as its system IL-17A-induced G-CSF production in human normal keratinocyte (NHK). Description: NHK assay: IL-17A-induced G-CSF production in normal human keratinocytes. The class given is cell-based. The conditions noted are these: 24 h, IL-17A 5 ng/mL, average if tested more than once. The method in brief:
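Stimulus rhIL-17A 5 ng/mL final, premixed 1 h rt with compound; adult NHK, 5% FBS, 0.2% DMSO. Viability by CellTiter-Glo vs DMSO.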

Assay [3] addresses T1, IL-17A : IL-17RA binding. Description: IL-17A(FLAG-tagged):IL-17RA(His-tagged) binding disruption Eu-HTRF assay, Protocol 1. Particulars: FLAG-IL-17A 2.5 nM at 2x final concentration; average if tested more than once. An outline of the steps: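 IC50 came from a one-site competition fit of the acceptor/donor (665/620 nm) HTRF ratio. His-tagged IL-17RA, Eu-anti-FLAG and D2-anti-His were added after a 1 h rt compound preincubation with FLAG-tagged IL-17A dimer in PBS/0.01% Triton X-100, followed by 2 h at rt before reading.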

T1 sequence (Q16552 with tags, fused parts or gaps K93Q): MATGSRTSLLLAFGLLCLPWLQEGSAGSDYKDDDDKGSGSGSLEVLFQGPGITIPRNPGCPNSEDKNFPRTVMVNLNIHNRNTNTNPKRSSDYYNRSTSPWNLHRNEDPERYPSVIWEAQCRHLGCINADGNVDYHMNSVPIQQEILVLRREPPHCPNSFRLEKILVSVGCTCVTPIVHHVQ

One may read the IC50 as the concentration that inhibits the measured activity by half. The low end stands for greater potency in that assay, the high end for weaker potency in that assay. As to `CC(C)n1nccc1C(=O)N[C@H](c1nc2cc([C@@H](COC3CC3)NC(=O)CC3CC(F)(F)C3)ccc2[nH]1)[C@@H](C)O[C@@H](C)C(F)(F)F` [Example 273, N-((1R,2R)-1-(5-((S)-2-Cyclopropoxy-1-(2-(3,3-difluorocyclobutyl)acetamido)ethyl)-1H-benzo[d]imidazol-2-yl)-2-(((S)-1,1,1-trifluoropropan-2-yl)oxy)propyl)-1-isopropyl-1H-pyrazole-5-carboxamide], the IC50 was over 0.1 µM at IL-17A : IL-17RA binding [1] and under 0.05 µM in assay [2] (Homo sapiens, Keratinocyte).

In the case of `CC(C)n1nccc1C(=O)N[C@H](c1nc2ccc([C@@H](C)NC(=O)CCC(F)(F)F)cc2[nH]1)C1CCC(F)(F)CC1` [Example 122, N—((S)-(4,4-Difluorocyclohexyl)(6-((R)-1-(4,4,4-trifluorobutanamido)ethyl)-1H-benzo[d]imidazol-2-yl)methyl)-1-isopropyl-1H-pyrazole-5-carboxamide], the IC50 at IL-17A : IL-17RA binding [3] was over 0.1 µM; on IL-17A : IL-17RA binding [1], over 0.1 µM; in assay [2] (Homo sapiens, Keratinocyte), under 0.05 µM.

Regarding `Cc1nonc1C(=O)N[C@H](c1nc2cc([C@@H](COC3CC3)NC(=O)C[C@H]3CC3(F)F)ccc2[nH]1)[C@@H](C)OC(C)(C)C(F)(F)F` [Example 270, N-((1R,2R)-1-(5-((S)-2-Cyclopropoxy-1-(2-((S)-2,2-difluorocyclopropyl)acetamido)ethyl)-1H-benzo[d]imidazol-2-yl)-2-((1,1,1-trifluoro-2-methylpropan-2-yl)oxy)propyl)-4-methyl-1,2,5-oxadiazole-3-carboxamide], the 50% inhibitory concentration (IC50) was in the range of 0.05 to 0.1 µM at IL-17A : IL-17RA binding [1] and 0.05 to 0.1 µM in assay [2] (Homo sapiens, Keratinocyte).

Take `Cc1nonc1C(=O)N[C@H](c1nc2cc([C@@H](COC3CC3)NC(=O)CC3CC(F)(F)C3)ccc2[nH]1)[C@@H](C)O[C@@H](C)C(F)(F)F` [Example 272, N-((1R,2R)-1-(5-((S)-2-Cyclopropoxy-1-(2-(3,3-difluorocyclobutyl)acetamido)ethyl)-1H-benzo[d]imidazol-2-yl)-2-(((S)-1,1,1-trifluoropropan-2-yl)oxy)propyl)-4-methyl-1,2,5-oxadiazole-3-carboxamide]: the half-inhibitory concentration (IC50) at IL-17A : IL-17RA binding [1] was over 0.1 µM; in assay [2] (Homo sapiens, Keratinocyte), under 0.05 µM.

On to `C[C@@H](NC(=O)CC1CC(F)(F)C1)c1ccc2nc(C(COC(C)(C)C(F)(F)F)NC(=O)c3nonc3C3CC3)[nH]c2c1` (single isomer, unassigned) [Example 152, 4-Cyclopropyl-N—((R*)-1-(6-((R)-1-(2-(3,3-difluorocyclobutyl)acetamido)ethyl)-1H-benzo[d]imidazol-2-yl)-2-((1,1,1-trifluoro-2-methylpropan-2-yl)oxy)ethyl)-1,2,5-oxadiazole-3-carboxamide], for which the IC50 was under 0.05 µM on IL-17A : IL-17RA binding [3]; under 0.05 µM at IL-17A : IL-17RA binding [1]; under 0.05 µM in assay [2] (Homo sapiens, Keratinocyte).

As to `C[C@@H](OC1CC1)[C@H](NC(=O)c1nonc1C1CC1)c1nc2cc([C@@H](COC3CC3)NC(=O)CC3CC(F)(F)C3)ccc2[nH]1` [Example 276, N-((1R,2R)-2-Cyclopropoxy-1-(5-((S)-2-cyclopropoxy-1-(2-(3,3-difluorocyclobutyl)acetamido)ethyl)-1H-benzo[d]imidazol-2-yl)propyl)-4-cyclopropyl-1,2,5-oxadiazole-3-carboxamide], the IC50 at IL-17A : IL-17RA binding [1] is 0.05 to 0.1 µM; in assay [2] (Homo sapiens, Keratinocyte) it was under 0.05 µM.

As for `Cc1nonc1C(=O)N[C@H](c1nc2cc([C@@H](COC3CC3)NC(=O)C[C@H]3CC3(F)F)ccc2[nH]1)[C@@H](C)O[C@H](C)C(F)(F)F` [Example 275, N-((1R,2R)-1-(5-((S)-2-Cyclopropoxy-1-(2-((S)-2,2-difluorocyclopropyl)acetamido)ethyl)-1H-benzo[d]imidazol-2-yl)-2-(((R)-1,1,1-trifluoropropan-2-yl)oxy)propyl)-4-methyl-1,2,5-oxadiazole-3-carboxamide], the IC50 was in the range of 0.05 to 0.1 µM on IL-17A : IL-17RA binding [1] and 0.05 to 0.1 µM in assay [2] (Homo sapiens, Keratinocyte).

Consider `COC[C@H](NC(=O)CC1CC(F)(F)C1)c1ccc2nc([C@H](COC(C)(C)C(F)(F)F)NC(=O)c3nonc3C3CC3)[nH]c2c1` (relative stereo) [Example 164, 4-Cyclopropyl-N—((R)-1-(5-((R*)-1-(2-(3,3-difluorocyclobutyl)acetamido)-2-methoxyethyl)-1H-benzo[d]imidazol-2-yl)-2-((1,1,1-trifluoro-2-methylpropan-2-yl)oxy)ethyl)-1,2,5-oxadiazole-3-carboxamide], for which the IC50 on IL-17A : IL-17RA binding [3] is under 0.05 µM; at IL-17A : IL-17RA binding [1] it was under 0.05 µM; in assay [2] (Homo sapiens, Keratinocyte), under 0.05 µM.

For `Cc1nonc1C(=O)N[C@H](c1nc2cc([C@@H](COC3CC3)NC(=O)CC3CC(F)(F)C3)ccc2[nH]1)[C@@H](C)OC(C)(C)C(F)(F)F` [Example 271, N-((1R,2R)-1-(5-((S)-2-Cyclopropoxy-1-(2-(3,3-difluorocyclobutyl)acetamido)ethyl)-1H-benzo[d]imidazol-2-yl)-2-((1,1,1-trifluoro-2-methylpropan-2-yl)oxy)propyl)-4-methyl-1,2,5-oxadiazole-3-carboxamide], the IC50 at IL-17A : IL-17RA binding [1] is 0.05 to 0.1 µM; in assay [2] (Homo sapiens, Keratinocyte), under 0.05 µM.

On to `Cc1nonc1C(=O)N[C@H](c1nc2cc([C@@H](COC3CC3)NC(=O)CC3CC(F)(F)C3)ccc2[nH]1)[C@@H](C)O[C@@H](C)C(F)(F)F` [Example 274, N-((1R,2R)-1-(5-((S)-2-Cyclopropoxy-1-(2-(3,3-difluorocyclobutyl)acetamido)ethyl)-1H-benzo[d]imidazol-2-yl)-2-(((S)-1,1,1-trifluoropropan-2-yl)oxy)propyl)-4-methyl-1,2,5-oxadiazole-3-carboxamide], for which the half-inhibitory concentration (IC50) (on IL-17A : IL-17RA binding [1]; in assay [2]) was 0.05 to 0.1 µM throughout.

For the compound `Cc1nonc1C(=O)N[C@@H](COC1CC(F)(F)C1)c1nc2ccc([C@H](NC(=O)CC3CC(F)(F)C3)C3CC3)cc2[nH]1` [Example 256, N—((R)-1-(6-((R)-Cyclopropyl(2-(3,3-difluorocyclobutyl)acetamido)methyl)-1H-benzo[d]imidazol-2-yl)-2-(3,3-difluorocyclobutoxy)ethyl)-4-methyl-1,2,5-oxadiazole-3-carboxamide], the IC50 on IL-17A : IL-17RA binding [3] was over 0.1 µM; in assay [2] (Homo sapiens, Keratinocyte), over 0.1 µM.

On to `C[C@@H](NC(=O)CCC(F)(F)F)c1ccc2[nH]c([C@@H](NC(=O)c3cnc(CCC(F)(F)F)s3)C3CCC(F)(F)CC3)nc2c1` [Example 222, N—((S)-(4,4-Difluorocyclohexyl)(5-((R)-1-(4,4,4-trifluorobutanamido)ethyl)-1H-benzo[d]imidazol-2-yl)methyl)-2-(3,3,3-trifluoropropyl)thiazole-5-carboxamide], for which the concentration for half-maximal inhibition (IC50) on IL-17A : IL-17RA binding [3] is over 0.1 µM; in assay [2] (Homo sapiens, Keratinocyte), over 0.1 µM.

As to `C[C@@H](NC(=O)CCC(F)(F)F)c1ccc2[nH]c([C@@H](NC(=O)[C@H]3C[C@@H]3F)C3CCC(F)(F)CC3)nc2c1` [Example 98, (1R,2S)—N—((S)-(4,4-Difluorocyclohexyl)(5-((R)-1-(4,4,4-trifluorobutanamido)ethyl)-1H-benzo[d]imidazol-2-yl)methyl)-2-fluorocyclopropane-1-carboxamide], the 50% inhibitory concentration (IC50) at IL-17A : IL-17RA binding [3] is over 0.1 µM; in assay [2] (Homo sapiens, Keratinocyte), over 0.1 µM.

Turning to `C[C@@H](NC(=O)CCC(F)(F)F)c1ccc2[nH]c([C@@H](NC(=O)c3cnn(CCC(F)(F)F)c3)C3CCC(F)(F)CC3)nc2c1` [Example 1, N—[(S)-(4,4-Difluorocyclohexyl)-[6-[(1R)-1-(4,4,4-trifluorobutanoylamino)ethyl]-1H-benzimidazol-2-yl]methyl]-1-(3,3,3-trifluoropropyl)pyrazole-4-carboxamide], the half-maximal inhibitory concentration (IC50) is over 0.1 µM at IL-17A : IL-17RA binding [3] and over 0.1 µM in assay [2] (Homo sapiens, Keratinocyte).
